Test results as given in ChEMBL document CHEMBL2028040, “Malaria Box”.

Assays:
[1] = tested on: Plasmodium falciparum; assay: MMV: Inhibition of Plasmodium falciparum 3D7 at 5uM compound concentration.; assay type: functional
[2] = tested on: Trypanosoma cruzi; assay: MMV: Inhibition of Trypanosoma cruzi (Tulahuen C4 LacZ) (Chagas in vitro).; assay type: functional, organism-based
[3] = tested on: Trypanosoma brucei brucei; assay: MMV: Inhibition of Trypanosoma brucei brucei (Squib 427) (HAT in vitro).; assay type: functional, organism-based
[4] = tested on: Trypanosoma brucei rhodesiense; assay: MMV: Inhibition of Trypanosoma brucei rhodesiense (STIB 900) (HAT in vitro).; assay type: functional, organism-based
[5] = tested on: Leishmania infantum; assay: MMV: Inhibition of Leishmania infantum (MHOM/MA/BE/67) in vitro.; assay type: functional, organism-based
[6] = MMV: Cytotoxicity against human fibroblasts (MRC-5) cells.; conditions: MRC-5 cells (human fibroblasts)

IC50 [2] [µM] | IC50 [3] [µM] | IC50 [4] [µM] | IC50 [5] [µM] | SMILES | inhibition at 5 µM [1] [%] | IC50 [6] [µM]
> 32 | > 32 | 16.1 | > 32 | COCCNC(=O)c1ccc(OC2CCN(Cc3ccc(F)c(F)c3)CC2)c(Cl)c1 | 91 | > 32
14.6 | 16.2 | 10.9 | 16.2 | COc1ccc(C(=O)Nc2ccc3nc(N4CCCCC4)cc(C)c3c2)cc1OC | – | 16.4
0.165 | 27 | 16 | 19 | CCOc1cccc2sc(N(Cc3cccnc3)C(=O)C3CCCCC3)nc12 | 94 | > 32
13 | 14.9 | 4.95 | 10.1 | CCOC(=O)c1cnc2ccc(OC)cc2c1NCc1ccccc1 | 87 | > 32
> 32 | > 32 | > 32 | 16.2 | CCOc1cccc(C(=O)Nc2ccc(-c3nc4ccccc4[nH]3)cc2)c1 | – | > 32
> 32 | > 32 | > 32 | > 32 | CC(=O)c1ccc(NC(=O)CSc2nc(-c3ccccc3Cl)ns2)cc1 | – | > 32
4.13 | 32 | 3.82 | > 32 | CCOC(=O)c1cnc2ccc(OC)cc2c1Nc1ccc(N2CCN(C)CC2)cc1 | – | 13.9
6.59 | 4.78 | 3.22 | 6.35 | CCN1CCN(c2cc(C)c3cc(NC(=O)c4ccc(OC)c(OC)c4)ccc3n2)CC1 | – | 5.46
13.7 | 14.3 | 0.679 | 16.2 | CCN(CC)c1cc(C)c2cc(NC(=O)c3cccc(OC)c3)ccc2n1 | – | 15.3

Second part, the compound before the results:

SMILES | IC50 [2] [µM] | IC50 [3] [µM] | IC50 [4] [µM] | IC50 [5] [µM] | inhibition at 5 µM [1] [%] | IC50 [6] [µM]
Oc1ccc(Cl)cc1CNc1nc2ccccc2[nH]1 | 16.1 | 15.6 | 16 | 16 | 95 | 15.9
FC(F)(F)c1cccc(Nc2nc(-c3ccccc3)nc3ncccc23)c1 | 15.3 | > 32 | 25.3 | > 32 | 74 | > 32
O=C(Nc1ccc(-c2nc3cc(NC(=O)c4ccc(Cl)cc4)ccc3[nH]2)cc1)c1ccc(Cl)cc1 | > 32 | > 32 | > 32 | > 32 | – | > 32
COc1cccc(C(=O)Nc2ccc(-c3nc4ccccc4[nH]3)cc2)c1 | > 32 | > 32 | > 32 | 16.2 | 83 | > 32
COc1ccc(-c2cn3c(C(=O)Nc4ccccc4Cl)c(-c4ccccc4)c4c3n2CCCC4)cc1 | 15 | 16.5 | 5 | 16 | 80 | > 32
CCN(CC)CCCNc1nc(-c2ccc(Cl)cc2)nc2ccccc12 | 8.56 | 0.271 | 0.25 | 4 | 92 | 15.8
Cc1ccc(OCCCCCCNCCO)c(C)c1 | 16 | 3.72 | 3.94 | 16.1 | 49 | > 32
Cc1ccc(C)c(-c2csc(Nc3ccc(C)c(C)c3)n2)c1 | 19.3 | > 32 | 22.8 | > 32 | 94 | > 32
COc1ccc(-c2nonc2NC(=O)c2cccc(Cl)c2)cc1OC | > 32 | > 32 | > 32 | > 32 | – | > 32
COc1cc2cc(C(=O)Nc3ccccc3)c(N)nc2cc1OC | > 32 | > 32 | > 32 | > 32 | – | > 32
